Experimental findings from patent publication US9212169B2, “Benzimidazole derivative and use thereof” (HYOGO COLLEGE OF MEDICINE, priority 2012, dated 2015) are described below.

For experiment [1], the target named is T1, silkworm recombinant PCA-1 (Homo sapiens, UniProt Q96Q83).
T1 construct: made in house; host or cells: silkworm
T1 sequence (Q96Q83 1-286): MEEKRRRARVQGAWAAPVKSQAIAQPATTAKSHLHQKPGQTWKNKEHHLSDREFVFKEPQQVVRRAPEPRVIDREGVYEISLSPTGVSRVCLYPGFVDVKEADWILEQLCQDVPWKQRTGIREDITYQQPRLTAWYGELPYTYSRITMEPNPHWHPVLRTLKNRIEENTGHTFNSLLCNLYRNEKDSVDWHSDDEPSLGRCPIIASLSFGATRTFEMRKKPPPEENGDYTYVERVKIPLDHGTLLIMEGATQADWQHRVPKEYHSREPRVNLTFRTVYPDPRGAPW
Nature of the experiment: Evaluation of PCA-1 inhibitory activity (demethylation of 3-methyl cytosine-containing oligo DNA, real-time PCR). To be noted: 37° C., 1 hr; for inhibition at 1 µM: test compound 1 μM; for inhibition at 10 µM: test compound 10 μM. The class given is biochemical. On the procedure: To an enzyme reaction solution (50 mM trishydrochloric acid buffer (pH 8.0), 2 mM ascorbic acid, 100 μM oxoglutaric acid, 40 μM ferric sulfate) containing 80 fmol 3-methyl cytosine-containing oligo DNA as a substrate were added a test compound (10 μM, 1 μM) and 4 ng silkworm recombinant PCA-1, and the mixture was incubated at 37° C. for 1 hr. After completion of the reaction, the enzyme reaction solution was 20-fold diluted with water to quench the reaction. Using 2 μL thereof, real-time PCR (Bio-Rad iQ SYBR Green Supermix) was performed in a 20 μL reaction system. The analytical curve was formed using a dilution series of the non-methylated oligoDNA. The primers used were forward primer 24 bases and reverse primer 22 bases. Reaction conditions: 95° C., 10 seconds→40 cycles of 95° C., 5 seconds, 61° C., 30 seconds, and 72° C., 15 seconds→95° C., 1 min→55° C., 1 min→55° C., 10 seconds, after which increased by 0.5° C. to 95° C. for 10 seconds→preserved at 25° C.
The degree of demethylation in the presence or absence of the test compound was compared and the inhibitory activity was evaluated.
Background: In qPCR the cycle at which signal appears reflects the starting amount.

The subject of experiment [2] is DU145 (prostate cancer cell). As to the kind of experiment: Cancer cell proliferation suppressive action, DU145 (WST-1). The class given is cell-based. The settings on record: Homo sapiens, read-out: DU145 proliferation inhibitory activity (%). On the procedure:
cell line used: DU145 (prostate cancer cell: Institute of Development, Aging and Cancer, Tohoku University, Cell Resource Center for Biomedical Research)
evaluation of scaffolding dependency growth suppressive action:
The cells were plated on a 96 well plate at 5×10^3 cells/well/90 μL, and cultured overnight. The test compound (10 μM) was added and, after culture for 48 hr, a 1:9 mixture of aqueous 1-methoxy-5-methylphenazinium methylsulfate (PMS) solution and 2-(4-iodophenyl)-3-(4-nitrophenyl)-5-(2,4-disulfophenyl)-2H-tetrazolium, monosodium salt (WST-1)/20 mM 4-(2-hydroxyethyl)-1-piperazineethanesulfonic acid (HEPES) solution (DOJIN) was added by 10 μL, and the absorbance was measured at 450 nm 2 hr later. As a control wavelength, 630 nm was used.

In the next experiment the test system is DU145 cell xenograft. Nature of the experiment: Antitumor action using prostate cancer xenograft model. The class given is in vivo, BALB/c nu/nu mouse. To be noted: subcutaneously administered, suspended in 0.5 w/v % carboxycellulose; tumor volume. From the text: A prostate cancer xenograft model was produced as shown below.
DU145 cells (4×10^6 cells) were mixed with BD Matrigel Basememt Membrane Matrix High Concentration (Becton, Dickinson and Company), and subcutaneously transplanted to the back of BALB/c nu/nu mouse. After transplantation, the tumor was isolated when it reached a volume of about 200 mm^3, and subcutaneously transplanted into the back of a different BALB/c nu/nu mouse. This operation was repeated three times to generate a tumor derived from DU145 cells that grow stably. A model mouse for the evaluation of the compound was prepared by finely cutting the in vivo passaged tumor into about 10 mm^3, and subcutaneously transplanting same into the back of a BALB/c nu/nu mouse.
The compound of Example 1 was suspended in 0.5 w/v % sterile carboxycellulose (Wako Pure Chemical Industries, Ltd.), and subcutaneously administered to the back. The volume of the tumor was calculated using the formula of (long diameter)×(short diameter)^2×0.5.

Read-outs that look alike come from different tables or passages of the source.

As for `Cc1ccc2[nH]c(-n3nc(C)c(-c4ccccc4)c3O)nc2c1` [Example 42], in experiment [1], the inhibition at 1 µM amounted to 37% and the inhibition at 10 µM worked out at 65%.
`Cc1nn(-c2nc3cc(C(F)(F)F)ccc3[nH]2)c(O)c1Cc1ccccc1` [Example 4, 3-methyl-4-(phenylmethyl)-1-(5-trifluoromethyl-1H-benzimidazol-2-yl)-1H-pyrazol-5-ol]: in experiment [1], the inhibition at 1 µM was determined as 50% and the inhibition at 10 µM is 82%.
As for `COc1ccc(Cc2c(C)nn(-c3nc4ccccc4[nH]3)c2O)cc1` [Example 31], in experiment [1], the inhibition at 1 µM is 47% and the inhibition at 10 µM is 85%.
In the case of `COc1ccc(Cc2c(C)nn(-c3nc4cc(C)ccc4[nH]3)c2O)cc1` [Example 34], in experiment [1], the inhibition at 1 µM was determined as 49% and the inhibition at 10 µM came to 80%.
In the case of `Cc1nn(-c2nc3cc(-c4ccccc4)ccc3[nH]2)c(O)c1Cc1ccccc1` [Example 37], in experiment [1], the inhibition at 1 µM stood at 38% and the inhibition at 10 µM turned out to be 64%.
In the case of `Cc1nn(-c2nc3ccccc3[nH]2)c(O)c1C` [Example 13], the inhibition at 1 µM in experiment [1] came to 19%. Moreover, the inhibition at 10 µM in experiment [1] is 76%; in experiment [2] (DU-145, 48 h) it was 22%.
As for `Cc1cc(O)n(-c2nc3ccccc3[nH]2)n1` [Example 15], in experiment [1], the inhibition at 1 µM is -1% and the inhibition at 10 µM came out at 76%.
For `Cc1nn(-c2nc3cc(-c4ccc(Cl)cc4)ccc3[nH]2)c(O)c1Cc1ccccc1` [Example 35], in experiment [1], the inhibition at 1 µM is 25% and the inhibition at 10 µM was found to be 77%.
Consider `Cc1ccc2[nH]c(-n3nc(C)c(Cc4ccc(F)cc4)c3O)nc2c1` [Example 32], for which, in experiment [1], the inhibition at 1 µM amounted to 49% and the inhibition at 10 µM is 81%.
`Cc1nn(-c2nc3ccccc3[nH]2)c(O)c1Cc1ccc(C(F)(F)F)cc1` [Example 24]: in experiment [1], the inhibition at 1 µM turned out to be 61% and the inhibition at 10 µM stood at 67%.
`Cc1ccc2[nH]c(-n3nc(C)c(Cc4ccccc4Cl)c3O)nc2c1` [Example 33]: in experiment [1], the inhibition at 1 µM amounted to 54% and the inhibition at 10 µM amounted to 82%.
As to `Cc1ccc(-c2ccc3[nH]c(-n4nc(C)c(Cc5ccccc5)c4O)nc3c2)cc1` [Example 40], in experiment [1], the inhibition at 1 µM amounted to 21% and the inhibition at 10 µM came out at 61%.
`Cc1ccc2[nH]c(-n3nc(C)c(CC4CCCCC4)c3O)nc2c1` [Example 46]: in experiment [1], the inhibition at 1 µM came out at 47% and the inhibition at 10 µM was 81%.
Regarding `Cc1nn(-c2nc3ccccc3[nH]2)c(O)c1Cc1ccc(F)cc1` [Example 25], in experiment [1], the inhibition at 1 µM was 39% and the inhibition at 10 µM is 68%.
In the case of `Cc1nn(-c2nc3ccccc3[nH]2)c(O)c1Cc1ccc2ccccc2c1` [Example 19], in experiment [1], the inhibition at 1 µM stood at 38% and the inhibition at 10 µM worked out at 76%.
In the case of `Cc1nn(-c2nc3ccccc3[nH]2)c(O)c1Cc1ccccc1` [Example 14], the inhibition at 1 µM in experiment [1] stood at 35%. For the same compound, the inhibition at 10 µM in experiment [1] is 80%; in experiment [2] (DU-145, 48 h), 45%.
Regarding `Cc1nn(-c2nc3cc(Cl)ccc3[nH]2)c(O)c1Cc1ccccc1` [Example 3, 1-(5-chloro-1H-benzimidazol-2-yl)-3-methyl-4-(phenylmethyl)-1H-pyrazol-5-ol], in experiment [1], the inhibition at 1 µM was 21% and the inhibition at 10 µM amounted to 60%.
Consider `Cc1ccc2[nH]c(-n3nc(C)c(Cc4ccc5ccccc5c4)c3O)nc2c1` [Example 11, 3-methyl-1-(5-methyl-1H-benzimidazol-2-yl)-4-(2-naphthylmethyl)-1H-pyrazol-5-ol], for which, in experiment [1], the inhibition at 1 µM is 36% and the inhibition at 10 µM is 82%.
For `Cc1ccc2[nH]c(-n3nc(C)c(Cc4ccccc4)c3O)nc2c1` [Example 1, 1-(5-methyl-1H-benzimidazol-2-yl)-3-methyl-4-(phenylmethyl)-1H-pyrazol-5-ol], in experiment [1], the inhibition at 1 µM stood at 24% and the inhibition at 10 µM stood at 81%. In addition, in experiment [2] (DU-145, test compound 10 μM, culture for 48 hr), the inhibition at 10 µM is 60%. Besides, the “antitumor action in a DU145 cell xenograft model (FIG. 1)” value with DU145 cell xenograft is given as “antitumor action”.
As to `Cc1ccc2[nH]c(-n3nc(C)c(C)c3O)nc2c1` [Example 17], in experiment [1], the inhibition at 1 µM stood at 25% and the inhibition at 10 µM stood at 76%.
For the compound `CCCCCCc1c(C)nn(-c2nc3cc(C)ccc3[nH]2)c1O` [Example 45], in experiment [1], the inhibition at 1 µM turned out to be 43% and the inhibition at 10 µM turned out to be 81%.
Take `Cc1nn(-c2nc3cc(C(C)(C)C)ccc3[nH]2)c(O)c1Cc1ccccc1` [Example 5, 1-[5-(1,1-dimethylethyl)-1H-benzimidazol-2-yl]-3-methyl-4-(phenylmethyl)-1H-pyrazol-5-ol]: in experiment [1], the inhibition at 1 µM was determined as 50% and the inhibition at 10 µM was 91%.
As to `Cc1nn(-c2nc3ccccc3[nH]2)c(O)c1-c1ccccc1` [Example 18], in experiment [1], the inhibition at 1 µM came to 27% and the inhibition at 10 µM worked out at 74%.
